Test results from paper PMC11468809, “An Outer Membrane Vesicle‐Based Permeation Assay (OMPA) for Assessing Bacterial Bioavailability” (Advanced Healthcare Materials, 2021).
Blank lines part the entries; values can stand above or below the compound they belong to.

Columns and labels:
[1] = Membrane permeabilization experiment on OMV-derived membrane; type: in vitro ADME, Escherichia coli; details: for effect of membrane-perturbating agent on the OMV-derived model: permeability of fusidic acid or fluorescein as readout
Method: Experiments were conducted on OMVs of E. coli BL21 DE3 Omp8 as stated above with some modifications. […] After 30 min, solutions were removed and the standard protocol was followed employing 200 × 10^−6 M fusidic acid solution and sampling after 5, 10, 15, 20, 25, 30, 45, and 60 min. The quantification was done via LC–MS/MS.
(§1) Afterward 240 µL of 10 × 10^−6 M fluorescein solution in PBS (pH 7.4) was added and 40 µL samples were drawn after 5, 10, 15, 20, 25, 30, 45, and 60 min and diluted 1 in 5 prior to fluorimetric quantification (λ ex = 485 nm, λ em = 530 nm).

[2] = Permeation across porin-deficient E. coli BL21 DE3 Omp8 OMV-derived membrane model; details: standard permeation assay, 200 × 10^−6 M
Method: (§2) 30 µL of the OMV or liposome suspension were given on top of membrane filters of a 96‐well filter plate (MultiScreen 96‐well filter plates with 0.4 µm PCTE membrane). Afterwards, filters were dried at 37°C inside a Memmert UF55 universal oven (fan at 100%). This process was repeated another two times. A six‐fold coating procedure was only followed for SEM‐imaging purposes. For permeation studies, the obtained coatings were covered with 40 µl of 0.5% w/v agarose solution using a direct diplacement pipette. Prior to permeation studies, the bottom of the coated filter was also coated with a thin film of 0.5% w/v agarose using a small brush.
(§3) Coated wells were incubated on the apical and basolateral side for 30 min with PBS (pH 7.4) at 37°C while shaken at 180 rpm. After incubation, 230 µL of pre‐warmed 200 × 10^−6 M antibiotic donor solution (37°C) replaced the PBS in the respective donor wells, while 30 µL were immediately removed and diluted 1:10. The absorbance of these dilutions was measured in a receiver plate using a Tecan Infinite 200 PRO (Tecan Trading AG, Maennedorf, Switzerland) plate reader. (Table S1, Supporting Information) 300 µL of fresh PBS were given into the acceptor wells of the receiver plate followed by absorbance measurements. Donor and acceptor plates were reassembled, incubated, and disassembled after 10, 20, 30, 45, 60, 90, and 120 min to measure the absorbance in the acceptor wells.

[3] = Membrane permeabilization experiment on bacteriomimetic liposome-derived model; type: in vitro ADME; details: fluorescein 10 × 10^−6 M after 30 min incubation with 83.1 × 10^−6 M PMB vs PBS
Method: as §1

[4] = not told
Method: as §2
as §3, with “After incubation, 230 µL of pre‐warmed 200 × 10^−6 M antibiotic donor solution (37°C) replaced the PBS in the respective donor wells, while 30 µL were immediately removed and diluted 1:10.” left out

[5] = Comparison of P app among four vesicle-derived membrane models; type: in vitro ADME; details: 200 × 10^−6 M; Figure 11
Excerpt: This process was repeated another two times.

[6] = Porin-blocking experiment with spermine on porin-deficient membrane model; details: 15 × 10^−6 M norfloxacin, no spermine
Method: (§4) Experiments were performed on OMVs of E. coli strains BL21 DE3 and BL21 DE3 Omp8. The procedure followed the standard protocol for permeability studies with some modifications. The membranes were incubated on both sides for 30 min either with 140 × 10^−3 M spermine solution in PBS (pH7.4) or blank PBS. […] Samples of 40 µL were taken after 5, 10, 15, 20, 25, and 30 min and analyzed by LC–MS/MS.
(§5) An Accela UHPLC System‐Coupled TSQ Quantum Access Max tandem quadrupole mass spectrometer (both from Thermo Fisher Scientific, Waltham, MA, USA) was employed. The entire system was operated via Xcalibur 219 software (Thermo Fisher Scientific, Waltham, MA, USA). The detection of the compounds in the MS happened after heated electrospray ionization (H‐ESI) in positive ion mode. The chromatographic analysis was performed with a binary solvent mixture using optionally acetonitrile + 0.1% formic acid (A), MilliQ‐water + 0.1% formic acid (B), methanol + 0.1% formic acid (C), or ammonium formate buffer (10 × 10^−3 M, pH 3, D). […]
(§6) Raw data obtained from the respective analytical readouts of transport studies were converted to their corresponding concentration via external calibration. […]
(§7) The apparent permeability coefficient (P app) was calculated according to the following formula: (2) Pappcm∗s^−1=J/c0 where c 0 is the initial donor concentration (µg cm^− ^3) and J (µg cm^− ^2*s) the compound flux.

[7] = Porin-blocking experiment with spermine on porin-containing membrane model; details: 15 × 10^−6 M norfloxacin, 140 × 10^−3 M spermine; Figure 10B
Method: as §4, §5, §6, §7

[8] = Impact of agarose gel and vesicle coating on compound permeation; details: P app; 0.5% w/v agarose gel; Figure 7
Method: as §2, §3

Compound: CC(=O)O[C@H]1C[C@@]2(C)[C@@H](C[C@@H](O)[C@H]3[C@@]4(C)CC[C@@H](O)[C@@H](C)[C@@H]4CC[C@@]32C)/C1=C(\CCC=C(C)C)C(=O)O [Fusidic acid]
change in permeability after membrane-perturbating agent ([1]; fusidic acid 200 × 10^−6 M after 30 min incubation with 103.8 × 10^−6 M PMBN vs PBS): none of the membrane‐perturbating agents caused significant changes

Compound: O=C(N[C@H](CO)[C@H](O)c1ccc([N+](=O)[O-])cc1)C(Cl)Cl [chloramphenicol]
permeability compared with the porin-containing BL21 DE3 OMV-derived model [2]: did not lead to a significant drop of permeation

Compound: O=C1OC2(c3ccc(O)cc3Oc3cc(O)ccc32)c2ccccc21 [fluorescein]
change in permeability after membrane-perturbating agent ([1]; fluorescein 10 × 10^−6 M after 30 min incubation with 83.1 × 10^−6 M PMB vs PBS): none of the membrane‐perturbating agents caused significant changes | permeation after treatment with PMB [3]: permeated significantly slower

Compound: CCn1cc(C(=O)O)c(=O)c2ccc(C)nc21 [nalidixic acid]
permeability across the eukaryotic membrane model compared with the other models [4]: increased | difference in permeability throughout the OMV- and the bacteriomimetic liposome-based model [5]: no significant difference

Compound: CCn1cc(C(=O)O)c(=O)c2cc(F)c(N3CCNCC3)cc21 [norfloxacin]
permeability compared with the porin-containing model [6]: significantly decreased permeability | permeability coefficients in presence vs absence of spermine [7]: significantly different | permeability compared with the porin-containing BL21 DE3 OMV-derived model [2]: lower

permeability with the vesicle coating compared to pure agarose gel coating [8]: significantly lower
Compound: CO[C@@H]1[C@@H](OC(N)=O)[C@@H](O)[C@H](Oc2ccc3c(O)c(NC(=O)c4ccc(O)c(CC=C(C)C)c4)c(=O)oc3c2C)OC1(C)C [novobiocin]

Compound: CO[C@H]1/C=C/O[C@@]2(C)Oc3c(C)c(O)c4c(O)c(c(/C=N/N5CCN(C)CC5)c(O)c4c3C2=O)NC(=O)/C(C)=C\C=C\[C@H](C)[C@H](O)[C@@H](C)[C@@H](O)[C@@H](C)[C@H](OC(C)=O)[C@@H]1C [rifampicin]
permeability across the eukaryotic membrane model compared with the other models [4]: comparable permeability | permeability with the vesicle coating compared to pure agarose gel coating [8]: significantly lower | difference in permeability throughout the OMV- and the bacteriomimetic liposome-based model [5]: no significant difference

Compound: CN(C)[C@@H]1C(O)=C(C(N)=O)C(=O)[C@@]2(O)C(O)=C3C(=O)c4c(O)cccc4[C@@](C)(O)[C@H]3C[C@@H]12 [tetracycline]
permeability with the vesicle coating compared to pure agarose gel coating [8]: significantly lower | permeability compared with the porin-containing BL21 DE3 OMV-derived model [2]: did not lead to a significant drop of permeation

Compound: CN[C@H](CC(C)C)C(=O)N[C@H]1C(=O)N[C@@H](CC(N)=O)C(=O)N[C@H]2C(=O)N[C@H]3C(=O)N[C@H](C(=O)N[C@H](C(=O)O)c4cc(O)cc(O)c4-c4cc3ccc4O)[C@H](O)c3ccc(c(Cl)c3)Oc3cc2cc(c3O[C@@H]2O[C@H](CO)[C@@H](O)[C@H](O)[C@H]2O[C@H]2C[C@](C)(N)[C@H](O)[C@H](C)O2)Oc2ccc(cc2Cl)[C@H]1O [vancomycin]
trend of permeability the fewer outer membrane features the model has [5]: gradual decrease of permeability

Compound: PMB nonapeptide [PMBN]
effect of membrane-perturbating agent on the OMV-derived model [1]: lack of effect

Compound: Polymyxin B [PMB]
effect of membrane-perturbating agent on the OMV-derived model [1]: lack of effect
